The values below come from PubChem BioAssay (NCI).

Values joined by “and” are separate entries in the source; they are usually repeats but may differ in a detail not shown here. Equal entries are not always repeated.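 Exposure lasted 48 hours, with cells grown in 96-well plates and compounds tested at five concentrations. GI50: concentration for 50% inhibition of growth. TGI: concentration producing complete growth inhibition.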

Some test systems named below: MALME-3M melanoma; EKVX NSCLC; HT29 colon; PC-3 prostate; A498 renal; SK-OV-3 ovarian; OVCAR-3 ovarian; K-562 leukemia; OVCAR-8 ovarian; HS 578T breast; NCI/ADR-RES ovarian; NCI-H522 lung.
Holding throughout (assay): inhibition of tumour cell growth, NCI panel, 48 h

Turning to `COC(=O)/C=C/c1cnc2c(c1)oc(=O)n2C`, the TGI with MALME-3M melanoma, in the assay with EKVX NSCLC, with HT29 colon, with PC-3 prostate, in the assay on A498 renal and in the assay with SK-OV-3 ovarian was over 100 µM in each case. The TGI in the assay with OVCAR-3 ovarian, with K-562 leukemia, in the assay with OVCAR-8 ovarian, in the assay on HS 578T breast and in the assay on NCI/ADR-RES ovarian was over 100 µM in each case.

Take `CCOc1ncnc2ccc(Cl)c(I)c12`: the TGI with MALME-3M melanoma, with EKVX NSCLC, with HT29 colon, in the assay on A498 renal, with SK-OV-3 ovarian and with OVCAR-3 ovarian was over 100 µM throughout. Further, the TGI with K-562 leukemia and in the assay on OVCAR-8 ovarian was over 100 µM throughout.

Regarding `NS(=O)(=O)c1nnc(NC(=O)/C=C/C(=O)O)s1`, the TGI in the assay with MALME-3M melanoma, in the assay with EKVX NSCLC, in the assay with HT29 colon, in the assay on A498 renal, in the assay on NCI-H522 lung and in the assay on SK-OV-3 ovarian was over 100 µM each time. The TGI in the assay on OVCAR-3 ovarian, with K-562 leukemia, in the assay with OVCAR-8 ovarian, in the assay with HS 578T breast and with NCI/ADR-RES ovarian was over 100 µM throughout.

As for `Cc1nn(C(=O)c2ccncc2)c2c1C(c1ccc([N+](=O)[O-])cc1)SC(N)=N2` (stereo not given), the TGI in the assay with MALME-3M melanoma, with EKVX NSCLC, with HT29 colon, in the assay with PC-3 prostate, with A498 renal and in the assay on SK-OV-3 ovarian was over 100 µM each time. Also, the TGI with OVCAR-3 ovarian, in the assay with K-562 leukemia, in the assay on OVCAR-8 ovarian, in the assay on HS 578T breast and with NCI/ADR-RES ovarian was over 100 µM in each case.

`COc1ccc2c(c1)OC1c3ccccc3OCC21` (stereo not given): the TGI in the assay on EKVX NSCLC is over 100 µM; with HT29 colon, 93.9 µM; in the assay on PC-3 prostate, over 100 µM; in the assay with A498 renal, over 100 µM; in the assay on SK-OV-3 ovarian, over 100 µM; in the assay on OVCAR-3 ovarian, over 100 µM. Further, the TGI in the assay with K-562 leukemia, in the assay on OVCAR-8 ovarian, in the assay on HS 578T breast and with NCI/ADR-RES ovarian was over 100 µM in each case.

Regarding `COc1cc(OC)cc(C(=O)Cc2c(C(=O)c3ccccc3)c3ccccc3n2C(=O)c2ccccc2)c1`, the TGI with MALME-3M melanoma is over 100 µM; in the assay on EKVX NSCLC, over 100 µM; in the assay with HT29 colon it was over 100 µM; in the assay on A498 renal it was 92.5 µM; with NCI-H522 lung, 45 µM; in the assay on SK-OV-3 ovarian, 99.8 µM. The TGI in the assay on OVCAR-3 ovarian, in the assay with K-562 leukemia and in the assay with OVCAR-8 ovarian was over 100 µM in each case.

On to `COc1ccc(NS(=O)(=O)c2ccc(N=C3C=C(Nc4ccc(S(=O)(=O)Nc5ccc(OC)nn5)cc4)C(=O)c4ccccc43)cc2)nn1`, for which the TGI in the assay with MALME-3M melanoma amounted to 33.1 µM; in the assay on EKVX NSCLC, 63.1 µM; in the assay with HT29 colon it was 36.2 µM; in the assay on A498 renal, 29 µM; in the assay with NCI-H522 lung, 31.8 µM; with SK-OV-3 ovarian, 33.1 µM. For the same compound, the TGI was 44.8 µM with OVCAR-3 ovarian, over 100 µM in the assay on K-562 leukemia and 34.8 µM in the assay with OVCAR-8 ovarian.

As to `C[C@H](CO)C1=CC(C#C[Si](C)(C)C)N(C(=O)Oc2ccccc2)c2ccccc21` (stereo not given in full), the TGI with EKVX NSCLC is 29.1 µM; in the assay with HT29 colon it was 20.5 µM; with PC-3 prostate it was 24 µM; in the assay with NCI-H522 lung, 15.7 µM; with SK-OV-3 ovarian, 31.1 µM; with OVCAR-3 ovarian it was 13.5 µM. Moreover, the TGI in the assay on K-562 leukemia is over 100 µM; in the assay with OVCAR-8 ovarian it was 42.9 µM; in the assay with HS 578T breast it was 26.4 µM; with NCI/ADR-RES ovarian it was 12.6 µM.

For `CC1=CC(=O)/C(=C/N2C(=O)CNC2=S)C(=O)O1`, the TGI in the assay on EKVX NSCLC, in the assay with HT29 colon, with PC-3 prostate, in the assay with SK-OV-3 ovarian, in the assay on OVCAR-3 ovarian and in the assay with OVCAR-8 ovarian was over 100 µM in each case. The compound further came in with a TGI in the assay with NCI/ADR-RES ovarian of over 100 µM.

Consider `CC(C)C1=CC23CCC4C(C)(C(=O)O)CCCC4(C)C2CC1C1C(=O)N(c2cccc(N4C(=O)C5C6CC7C8(C)CCCC(C)(C(=O)O)C8CCC7(C=C6C(C)C)C5C4=O)c2)C(=O)C13` (stereo not given), for which the TGI with MALME-3M melanoma worked out at 32.9 µM; in the assay with EKVX NSCLC, 24.4 µM; in the assay on HT29 colon, 10.8 µM; in the assay with PC-3 prostate it was 17.9 µM; with A498 renal it was 26.7 µM; in the assay on NCI-H522 lung, 29.7 µM. The TGI in the assay on OVCAR-3 ovarian is 25.7 µM; in the assay on K-562 leukemia it was 96.1 µM; in the assay on OVCAR-8 ovarian, 22.7 µM; with HS 578T breast, 24.6 µM.

For the compound `O=C(NNC(=O)c1c(Cl)c(Cl)c(Cl)c(Cl)c1-c1nc2ccccc2[nH]1)c1ccc(Cl)cc1`, the TGI in the assay on MALME-3M melanoma, in the assay on EKVX NSCLC, with HT29 colon, in the assay with PC-3 prostate, in the assay on A498 renal and in the assay on NCI-H522 lung was over 100 µM each time. The TGI in the assay with SK-OV-3 ovarian, in the assay with OVCAR-3 ovarian, with K-562 leukemia, with OVCAR-8 ovarian and with NCI/ADR-RES ovarian was over 100 µM throughout.

Regarding `O=C(N[C@@H](Cc1ccccc1)B(O)O)[C@H](Cc1cccc2ccccc12)NC(=O)N1CCOCC1`, the TGI is 0.0103 µM and 0.0226 µM with MALME-3M melanoma; 0.923 µM and 3.66 µM with EKVX NSCLC; 0.0105 µM and 0.0106 µM in the assay on HT29 colon; 0.106 µM and 0.134 µM with PC-3 prostate; 0.212 µM with A498 renal; 0.00255 µM and 0.0196 µM with OVCAR-3 ovarian. In addition, the TGI in the assay on K-562 leukemia is 0.0852 µM; with OVCAR-8 ovarian, 0.122 µM; in the assay with HS 578T breast it was 0.213 µM; in the assay on NCI/ADR-RES ovarian, over 100 µM. In addition, the GI50 was 0.129 µM in the assay with EKVX NSCLC and 7.31 µM in the assay with NCI/ADR-RES ovarian.

Turning to `CCOC(=O)c1csc(-c2nc(CCNC(=O)c3ccccc3)sc2Cl)n1`, the TGI in the assay on MALME-3M melanoma, in the assay on EKVX NSCLC, with HT29 colon, in the assay with PC-3 prostate, with A498 renal and in the assay on SK-OV-3 ovarian was over 100 µM each time. The TGI in the assay on OVCAR-3 ovarian, in the assay with K-562 leukemia, in the assay with OVCAR-8 ovarian, in the assay on HS 578T breast and in the assay with NCI/ADR-RES ovarian was over 100 µM throughout.
